Laboratory results taken from PubChem BioAssay (NCI).
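All cell lines were grown in 96-well plates and treated with compound for 48 hours. TGI: concentration producing complete growth inhibition.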

How the values were obtained:
Assay in all cases: inhibition of tumour cell growth, NCI panel, 48 h
HCT-15 colon = system: HCT-15 colon
HS 578T breast = system: HS 578T breast
HCT-116 colon = system: HCT-116 colon
SNB-75 CNS = system: SNB-75 CNS
SF-295 CNS = system: SF-295 CNS
COLO 205 colon = system: COLO 205 colon
K-562 leukemia = system: K-562 leukemia
HOP-92 NSCLC = system: HOP-92 NSCLC
SF-268 CNS = system: SF-268 CNS
M14 melanoma = system: M14 melanoma
OVCAR-4 ovarian = system: OVCAR-4 ovarian
OVCAR-8 ovarian = system: OVCAR-8 ovarian
NCI-H226 lung = system: NCI-H226 lung
MDA-N = system: MDA-N
SK-MEL-28 melanoma = system: SK-MEL-28 melanoma
ACHN renal = system: ACHN renal
A549 NSCLC = system: A549 NSCLC
MALME-3M melanoma = system: MALME-3M melanoma
NCI/ADR-RES ovarian = system: NCI/ADR-RES ovarian
OVCAR-5 ovarian = system: OVCAR-5 ovarian
DU-145 prostate = system: DU-145 prostate
SNB-19 CNS = system: SNB-19 CNS
SF-539 CNS = system: SF-539 CNS
HT29 colon = system: HT29 colon
IGROV1 ovarian = system: IGROV1 ovarian
KM12 colon = system: KM12 colon
U251 CNS = system: U251 CNS
CCRF-CEM leukemia = system: CCRF-CEM leukemia
MDA-MB-231 breast = system: MDA-MB-231 breast
NCI-H23 lung = system: NCI-H23 lung
SW-620 colon = system: SW-620 colon
SK-OV-3 ovarian = system: SK-OV-3 ovarian
UO-31 renal = system: UO-31 renal
EKVX NSCLC = system: EKVX NSCLC
OVCAR-3 ovarian = system: OVCAR-3 ovarian
786-0 renal = system: 786-0 renal
CAKI-1 renal = system: CAKI-1 renal
NCI-H522 lung = system: NCI-H522 lung
HOP-62 NSCLC = system: HOP-62 NSCLC
BT-549 breast = system: BT-549 breast
MOLT-4 leukemia = system: MOLT-4 leukemia
SK-MEL-2 melanoma = system: SK-MEL-2 melanoma
SN12C renal = system: SN12C renal
PC-3 prostate = system: PC-3 prostate
RXF 393 renal = system: RXF 393 renal
HL-60(TB) leukemia = system: HL-60(TB) leukemia
MDA-MB-435 = system: MDA-MB-435
NCI-H460 lung = system: NCI-H460 lung
SK-MEL-5 melanoma = system: SK-MEL-5 melanoma
T-47D breast = system: T-47D breast
TK-10 renal = system: TK-10 renal
LOX IMVI melanoma = system: LOX IMVI melanoma
UACC-257 melanoma = system: UACC-257 melanoma
RPMI-8226 leukemia = system: RPMI-8226 leukemia
A498 renal = system: A498 renal
SR leukemia = system: SR leukemia
HCC-2998 colon = system: HCC-2998 colon
UACC-62 melanoma = system: UACC-62 melanoma

Compound: CN1C2CCC1CN(CCOC(c1ccc(F)cc1)c1ccc(F)cc1)C2
- TGI (HCT-15 colon): > 100 µM
- TGI (HS 578T breast): > 100 µM
- TGI (HCT-116 colon): 44.8 µM
- TGI (SNB-75 CNS): > 100 µM
- TGI (SF-295 CNS): 39.1 µM
- TGI (COLO 205 colon): 33.8 µM
- TGI (K-562 leukemia): 62.6 µM
- TGI (HOP-92 NSCLC): 93.9 µM
- TGI (SF-268 CNS): > 100 µM
- TGI (M14 melanoma): 38.8 µM
- TGI (OVCAR-4 ovarian): > 100 µM
- TGI (OVCAR-8 ovarian): > 100 µM
- TGI (NCI-H226 lung): > 100 µM
- TGI (MDA-N): > 100 µM
- TGI (SK-MEL-28 melanoma): 30.1 µM
- TGI (ACHN renal): > 100 µM
- TGI (A549 NSCLC): > 100 µM
- TGI (MALME-3M melanoma): 32.5 µM
- TGI (NCI/ADR-RES ovarian): > 100 µM
- TGI (OVCAR-5 ovarian): > 100 µM
- TGI (DU-145 prostate): > 100 µM
- TGI (SNB-19 CNS): > 100 µM
- TGI (SF-539 CNS): 38 µM
- TGI (HT29 colon): 73.7 µM
- TGI (IGROV1 ovarian): > 100 µM
- TGI (KM12 colon): 49.5 µM
- TGI (U251 CNS): 78.9 µM
- TGI (CCRF-CEM leukemia): > 100 µM
- TGI (MDA-MB-231 breast): 58.5 µM
- TGI (NCI-H23 lung): > 100 µM
- TGI (SW-620 colon): 83.8 µM
- TGI (SK-OV-3 ovarian): > 100 µM
- TGI (UO-31 renal): > 100 µM
- TGI (EKVX NSCLC): > 100 µM
- TGI (OVCAR-3 ovarian): > 100 µM
- TGI (786-0 renal): 40 µM
- TGI (CAKI-1 renal): > 100 µM
- TGI (NCI-H522 lung): > 100 µM
- TGI (HOP-62 NSCLC): 59.3 µM
- TGI (BT-549 breast): > 100 µM
- TGI (MOLT-4 leukemia): 83.7 µM
- TGI (SK-MEL-2 melanoma): 56.3 µM
- TGI (SN12C renal): > 100 µM
- TGI (PC-3 prostate): > 100 µM
- TGI (RXF 393 renal): 43 µM
- TGI (HL-60(TB) leukemia): 31.3 µM
- TGI (MDA-MB-435): 63.7 µM
- TGI (NCI-H460 lung): 60.6 µM
- TGI (SK-MEL-5 melanoma): 27.8 µM
- TGI (T-47D breast): 76.6 µM
- TGI (TK-10 renal): > 100 µM
- TGI (LOX IMVI melanoma): 39.1 µM
- TGI (UACC-257 melanoma): 37.3 µM
- TGI (RPMI-8226 leukemia): 55.9 µM
- TGI (A498 renal): 86 µM

Compound: CCN(CC)C(=S)N/N=C(\C)c1cccc(C)n1
- TGI (HCT-15 colon): 18 µM
- TGI (HS 578T breast): > 81.8 µM
- TGI (HCT-116 colon): 1.34 µM
- TGI (SNB-75 CNS): 14.1 µM
- TGI (SF-295 CNS): 13.4 µM
- TGI (COLO 205 colon): 12.1 µM
- TGI (HOP-92 NSCLC): 4.49 µM
- TGI (SF-268 CNS): 12.4 µM
- TGI (M14 melanoma): 4.63 µM
- TGI (OVCAR-4 ovarian): 4.24 µM
- TGI (OVCAR-8 ovarian): 16.9 µM
- TGI (NCI-H226 lung): 5.7 µM
- TGI (MDA-N): 13.7 µM
- TGI (SK-MEL-28 melanoma): 6.47 µM
- TGI (ACHN renal): 1.92 µM
- TGI (A549 NSCLC): 11.4 µM
- TGI (MALME-3M melanoma): 7.4 µM
- TGI (NCI/ADR-RES ovarian): 13.5 µM
- TGI (OVCAR-5 ovarian): 23.5 µM
- TGI (DU-145 prostate): 4.96 µM
- TGI (SNB-19 CNS): 22.2 µM
- TGI (SF-539 CNS): 1.13 µM
- TGI (SR leukemia): > 100 µM
- TGI (HCC-2998 colon): 9.6 µM
- TGI (HT29 colon): 1.78 µM
- TGI (IGROV1 ovarian): 12.7 µM
- TGI (KM12 colon): 6.53 µM
- TGI (U251 CNS): 12.7 µM
- TGI (CCRF-CEM leukemia): > 100 µM
- TGI (MDA-MB-231 breast): 19.6 µM
- TGI (SW-620 colon): 17.2 µM
- TGI (SK-OV-3 ovarian): 11.3 µM
- TGI (UO-31 renal): 5.83 µM
- TGI (EKVX NSCLC): 15.5 µM
- TGI (OVCAR-3 ovarian): 0.102 µM
- TGI (786-0 renal): 1.36 µM
- TGI (CAKI-1 renal): 16.6 µM
- TGI (NCI-H522 lung): 0.454 µM
- TGI (HOP-62 NSCLC): 12.7 µM
- TGI (BT-549 breast): 18.8 µM
- TGI (MOLT-4 leukemia): > 71.5 µM
- TGI (SK-MEL-2 melanoma): 18 µM
- TGI (SN12C renal): 13.4 µM
- TGI (PC-3 prostate): 17.5 µM
- TGI (RXF 393 renal): 14.4 µM
- TGI (HL-60(TB) leukemia): 0.626 µM
- TGI (UACC-62 melanoma): 1.76 µM
- TGI (MDA-MB-435): 7.76 µM
- TGI (NCI-H460 lung): 0.95 µM
- TGI (SK-MEL-5 melanoma): 1.46 µM
- TGI (T-47D breast): 14.4 µM
- TGI (TK-10 renal): 17 µM
- TGI (LOX IMVI melanoma): 2.55 µM
- TGI (UACC-257 melanoma): 13.3 µM
- TGI (RPMI-8226 leukemia): 23.4 µM
- TGI (A498 renal): 0.572 µM
